From a melting point compilation (Tetko et al.; mined from patent text by program, amines drawn as free bases though some values may be those of a salt)

Compared with `CCc1c(CCNC(=O)CCCC(=O)NCCc2ccc(OC)c(OC)c2CC)ccc(OC)c1OC`, `COc1cc2c(=O)oc(=O)[nH]c2c(OC)c1OC` is higher in melting point: 171 to 173 °C for the first, 247 °C for the second.

First: CS(=O)(=O)NCCSc1cccc2nccn12
Second: CCc1c2nc(-c3cc(S(C)(=O)=O)ccc3OCC(C)C)[nH]c(=O)c2nn1Cc1nccn1C
The melting point of the first is lower: 130 to 131 °C for the first, 253 to 254 °C for the second.

First: Oc1c(Br)cc(-c2cccc3sc4ccccc4c23)cc1Br
Second: CC1N=C(c2ccccc2)c2cc(Br)ccc2NC1=O (centres undefined)
The melting point of the first is lower: 128 to 130 °C for the first, 210 to 212 °C for the second.

First: Cc1oc(C=Cc2ccccc2Cl)nc1CC#N
Second: N#Cc1nn(-c2c(Cl)cc(C(F)(F)F)cc2Cl)c(N)c1-c1ccccc1F
The melting point of the first is lower: 89 to 90 °C for the first, 197 °C for the second.

First: CCC(O)(c1ccc(OCCCN2CCC(C)CC2)cc1)c1ccccc1OC (centres undefined)
Second: COc1ccc(C(=O)Cc2ccccc2)c(O)c1
The melting point of the first is lower: 82 to 83 °C for the first, 87 to 88 °C for the second.

First: Cc1oc(-c2ccccc2)nc1COc1ccc(C(=O)Nc2nn(-c3ccccc3)cc2C=O)cc1
Second: N#Cc1cc(C(=O)NNC(=O)c2occ(-c3ccccc3)c2-c2ccccc2)ccc1OC(=O)c1ccccc1
The melting point of the first is higher: 185 to 186 °C for the first, 163 to 167 °C for the second.

Compared with `COC(=O)C(C)=CC1C(C(=O)OC(C)(C)N2C(=O)C=CC2=O)C1(C)C` (centres undefined), `COC(=O)C(=O)c1cn2c3c(cccc13)C(Br)CC2` (centres undefined) is higher in melting point: 98.7 °C for the first, 120 to 122 °C for the second.

First: CC(C)(C)OC(=O)N1CCN(c2nccc(Oc3ccc(NC(=O)c4cc(F)cc(N5CCCCC5)c4)c4ccccc34)n2)CC1
Second: COc1cc(C(=O)N2Cc3ccc(C(=O)NCc4ccc(Cl)cc4)n3Cc3ccccc32)ccc1-c1ccccc1C
The melting point of the first is lower: 175 to 177 °C for the first, 218 to 219 °C for the second.

Compared with `Cc1cccc(-c2n[nH]cc2-c2ccc(F)c(-c3cn(CCN(C)C)cn3)c2)n1`, `O=C(c1ccccc1)c1c[nH]nc1-c1cccc(Cl)c1` is higher in melting point: 130 to 131 °C for the first, 161 to 164 °C for the second.

First: COC(=O)c1ccc2c(c1)S(=O)(=O)c1ccccc1N=C2N1CCOCC1
Second: Cc1ccccc1-c1cc(N2CCOCC2)ncc1N(C)C(=O)C(C)(C)c1cc(C(F)(F)F)cc(C(F)(F)F)c1
The melting point of the first is higher: 164 to 166 °C for the first, 129 to 130 °C for the second.

First: NC(=O)c1c(Cl)c(-c2ccccc2)n2c1CN(C(=O)N1CCOCC1)CC2
Second: COC[C@H]1CCCN1NC(=O)Nc1cccc2c1C(=O)c1c-2n[nH]c1-c1ccc(C(=O)N2CCNCC2)s1
The melting point of the first is lower: 219 to 220 °C for the first, greater than 300 °C for the second.

Compared with `Cn1nc(Br)c([N+](=O)[O-])c1NCc1ccccc1`, `CCn1cc(-c2ccccc2)c(=O)c(-c2ccccc2)n1` is lower in melting point: 133 °C for the first, 124 to 125 °C for the second.

Compared with `CCc1ccc(C(=O)O)c([N+](=O)[O-])c1`, `Cc1cc(CC(=O)O)n(C)c1C(=O)c1ccc(Cl)cc1Cl` is higher in melting point: 111 °C for the first, 140 to 143 °C for the second.

First: CN(CCCN1c2ccccc2CCc2ccccc21)C(=O)c1cccnc1
Second: CCCCCSc1cccc(-c2nc(=O)c3ccccc3s2)n1
The melting point of the first is lower: 84 to 86 °C for the first, 105 °C for the second.

Compared with `Cc1ccc(S(=O)(=O)OCC2Cc3cccc(-c4c(Cl)cccc4Cl)c3O2)cc1` (centres undefined), `CCOC(=O)c1cnc2cc(C)nn2c1N(C)S(=O)(=O)c1ccc(Oc2ccncc2)cc1` is lower in melting point: 178 to 180 °C for the first, 139 to 144 °C for the second.

Compared with `COc1cccc(C(C[N+](=O)[O-])C2CCCCC2=O)c1` (racemic), `COc1ccc2nc3c(cc2c1)c(N)nn3C` is higher in melting point: 125 to 126 °C for the first, 185 to 186 °C for the second.

First: CCCCc1nc(Cl)c(C(=O)O)n1Cc1ccc2oc(-c3ccccc3C(=O)O)c(Br)c2c1
Second: O=C(O)Cn1cc(C(=O)O)c(=O)c2cccc(Br)c(=O)c21
The melting point of the first is lower: 148 to 152 °C for the first, 173 to 175 °C for the second.

First: Cn1c(Cl)cccc1=O
Second: Cn1cnc(=S)c(-c2cccc(C(F)(F)F)c2)c1
The melting point of the first is lower: 108 °C for the first, 197 to 200 °C for the second.

Compared with `COCCCOc1cc(CC(CC2C(OC(=O)OC(C)(C)C)CC(C(C)(C)O)C(=O)N2C(=O)OC(C)(C)C)C(C)C)ccc1OC` (centres undefined), `CCCC[C@@H](NC(=O)[C@H](Cc1ccc(O)cc1)NC(=O)OC(C)(C)C)C(=O)NCC(=O)Oc1c(Cl)c(Cl)c(Cl)c(Cl)c1Cl` is higher in melting point: 118 to 119 °C for the first, 175 to 177 °C for the second.

Compared with `Cc1cc(C(N)=O)nn1CCO`, `NC(=O)CNC(=O)c1cc(Cl)nc(Cl)c1` is higher in melting point: 170 to 172 °C for the first, 211 to 213 °C for the second.

First: Cc1noc(C)c1S(=O)(=O)n1c(Br)nc(Br)c1Br
Second: Cc1nc(O)c(C#N)c(C)c1Br
The melting point of the first is lower: 165 to 170 °C for the first, 254 to 262 °C for the second.

Compared with `CCC(C)C(NC(=O)OCc1ccccc1)C(=O)NC(C(=O)Nc1n[nH]c(=S)s1)C(C)C` (centres undefined), `CCCCCCCCCCC[C@H](CC(=O)N[C@@H](CO)CCCN)OCc1ccccc1` is lower in melting point: 197 to 198 °C for the first, 47 to 48 °C for the second.

First: COC(=O)C1=C(N)C(=O)NCC1
Second: C=CCn1c(C)nc2c1CC(C(=O)OCC)CC2=O (centres undefined)
The melting point of the first is higher: 192 to 194 °C for the first, 95 to 97 °C for the second.

First: CC(=O)SCC(CC(C)C)C(=O)O (centres undefined)
Second: C=C(c1ccn[nH]1)c1ccc(OCC(=O)OCC)c(Cl)c1Cl
The melting point of the first is lower: 42 to 47 °C for the first, 110 to 112 °C for the second.

With `Cc1cc2c(C)nc(N)nc2o1` the melting point was 263 to 265 °C.
